How the values were obtained:
[1] = system: ICAM-1 signal of the macrophage-like cells (U937, CD45 positive); assay: ICAM-1 signal of macrophage-like cells in the three-dimensional A549-U937 co-culture exposed to 3-oxo-C12 HSL, flow cytometry; type: cell-based, human; details: 100 μM; 20 hours; p<0.01; mean ± SD, N=3
Text: Mouse anti-human CD45 (Invitrogen) and ICAM-1 (Invitrogen) conjugated with phycoerythrin (PE)-Cy5 and FITC respectively were used for flow cytometry staining. Sample preparation and fluorescent staining of cells. Cells were rinsed 2 times with pre-warmed HBSS (Invitrogen), detached from microcarrier beads/culture flasks with 0.25% trypsin-EDTA (Invitrogen) and counted using a hemocytometer. For inclusion of cells detached from the microcarrier beads (three-dimensional A549 and three-dimensional A549-U937 co-cultures) in the frame of QS exposure studies (see below), whole cultures (both aggregates and bulk liquid) were centrifuged at 1200 rpm for 6 min for each washing step. […]
Stained cell suspensions were analyzed with an EPICS XL flow cytometer (Beckman-Coulter) or a Cytomics FC 500 system (Beckman-Coulter), equipped with an argon laser and filters for adequate excitation of the chosen fluorophores. Forward scatter, side scatter, FITC-, PI and PE-Cy5 emissions were measured and a total of 10,000 cells were recorded for each sample. […]
After 72 hours of co-cultivation, aggregates containing 2×10^6 cells were seeded into 6-well plates containing fresh medium (5 ml total volume). […] Consequently, cell viability was further assessed based on the shift in forward scatter signal (see Table 1).

U937 cultures = type: in vitro ADME, human; details: compared to three-dimensional A549 and A549-U937 cultures
Description: (§1) Following exposure of three-dimensional cultures and monocytes to 3-oxo-C12 HSL, cell-free samples were taken and stored at −20° C. at indicated time points. The remaining 3-oxo-C12 HSL concentration was assessed as previously described (Crabbé et al., 2008) using the indicator strain E. coli harboring the reporter plasmid pUCP22NotI-PlasB::gfp(ASV)Plac::lasR (Hentzer et al., 2002). A 3-oxo-C12 HSL standard series was included ranging from 1.63 to 100 μM. Culture medium containing microcarrier beads was used as a control to normalize for bioadsorption.

[2] = system: three-dimensional A549 and three-dimensional A549-U937 cultures; type: in vitro ADME, human; details: original concentration 100 μM
Description: as §1

U937 cells = details: this and other studies (Tateda 2003, Kravchenko 2006, Li 2009); cited from earlier work
[3] = system: A549 cells in A549-U937 3-D co-culture; assay: Viability of A549 epithelial cells in the three-dimensional A549-U937 co-culture after exposure to 3-oxo-C12 HSL; type: cell-based, human; details: A549 co-cultured three-dimensionally with U937, 20 hour exposure
Description: A549 three-dimensional aggregates were grown as described above and after 9 days of three-dimensional A549 cultivation, undifferentiated U937 monocytes were added to the HARV as follows. three-dimensional A549 cells were counted by trypsinization of an aggregate sample and U937 cells (grown in T75 flasks) were added in a 1:1 ratio to the three-dimensional A549 culture. A549 and U937 cells were co-cultured in the HARV at 20 rpm for 72 h. After addition of the monocytes, culture medium was changed after 48 hours of co-cultivation where after medium was replenished every 24 hours.
(§2) Assessment of live-, apoptotic-, and necrotic cell populations was performed with the annexin V-propidium iodide (PI) kit for flow cytometry analysis (ImmunoSource) according to the manufacturer's instructions.
(§3) Stained cell suspensions were analyzed with an EPICS XL flow cytometer (Beckman-Coulter) or a Cytomics FC 500 system (Beckman-Coulter), equipped with an argon laser and filters for adequate excitation of the chosen fluorophores. Forward scatter, side scatter, FITC-, PI and PE-Cy5 emissions were measured and a total of 10,000 cells were recorded for each sample. The respective cell populations were delimited to eliminate background signals originating from cell debris. To assess background fluorescent signals from the tested cell populations, non-stained samples were included.
After 72 hours of co-cultivation, aggregates containing 2×10^6 cells were seeded into 6-well plates containing fresh medium (5 ml total volume). Subsequently, aggregates were spiked with 5, 10 or 100 μM 3-oxo-C12 HSL (Sigma-Aldrich) (starting from a 20 mM stock solution in DMSO, stored at −20° C.). Equal volumes of DMSO, containing the respective amounts of 3-oxo-C12 HSL, were added to each well (25 μl) and a solvent control (25 μl DMSO) was included in each experiment. Six-well plates were placed at 37° C. in a 5% CO2 environment and incubated for 20 hours. […] Consequently, cell viability was further assessed based on the shift in forward scatter signal (see Table 1).

A549 3-D = assay: Cell viability of three-dimensional A549 monotypic cultures after exposure to 3-oxo-C12 HSL, flow cytometry; type: cell-based, human; details: for Percentage viability, A549 3-D: A549 exposed alone, 20 hour exposure
Description: The three-dimensional A549 monotypic cultures were made as previously described (Carterson et al., 2005).
as §2, §3
After 72 hours of co-cultivation, aggregates containing 2×10^6 cells were seeded into 6-well plates containing fresh medium (5 ml total volume). Subsequently, aggregates were spiked with 5, 10 or 100 μM 3-oxo-C12 HSL (Sigma-Aldrich) (starting from a 20 mM stock solution in DMSO, stored at −20° C.). Equal volumes of DMSO, containing the respective amounts of 3-oxo-C12 HSL, were added to each well (25 μl) and a solvent control (25 μl DMSO) was included in each experiment. Six-well plates were placed at 37° C. in a 5% CO2 environment and incubated for 20 hours. For exposure assays of monocytes to 3-oxo-C12 HSL, 2×10^6 U937 cells/well were transferred in 6-well plates. To assess the influence of 3-oxo-C12 HSL on monocytes cultured on microcarrier beads, collagen I-coated beads were added to the cells at the same concentration as for seeding three-dimensional cultures (1 bead per 2500 cells). Subsequently, monocyte cultures (with or without microcarrier beads) were spiked with 3-oxo-C12 HSL (see above). A solvent control was included. After 20 hours incubation, cells were processed for flow cytometry analysis. Cell viability was assayed with trypan blue (0.4%) (Sigma) and/or with the annexin V-PI kit (ImmunoSource) (see above). […] FIG. 9B are examples of the three-dimensional A549-U937 co-culture model exposed to 100 μM 3-oxo-C12 HSL and to the solvent control DMSO. The presented cell population is gated for CD45 positive cells and thus only includes monocytes/macrophages. For FIGS. 9A-B, “I” represents the percentage of dead cells, while “H” is the viable cell population. Consequently, cell viability was further assessed based on the shift in forward scatter signal (see Table 1).

SMILES: CCCCCCCCCC(=O)CC(=O)N[C@H]1CCOC1=O [3-oxo-C12 HSL, N-(3-oxododecanoyl)-Lhomoserine lactone]
- increase in the ICAM-1 signal compared to the control samples [1]: 2.93±0.79 fold
- change of 3-oxo-C12 HSL concentration over time (U937 cultures): minimal differences in 3-oxo-C12 HSL concentration over time
- remaining fraction of the original 3-oxo-C12 HSL concentration ([2]; after 2 hours of exposure): 30%
- residual 3-oxo-C12 HSL ([2]; after 20 hours of exposure): no residual 3-oxo-C12 HSL could be detected
- concentrations at which apoptosis is induced in pure cultures of monocytes and macrophages (U937 cells): above 25 μM
- Percentage viability, A549-U937 3-D, A549 ([3]; 5 μM): 90.3 ± 0.01%
- Percentage viability, A549-U937 3-D, A549 ([3]; 10 μM): 92.6 ± 0.00%
- Percentage viability, A549-U937 3-D, A549 ([3]; 100 μM): 84.3 ± 0.00%
- cell death in A549 three-dimensional monotypic cultures (A549 3-D; 5, 10 and 100 μM): did not induce cell death
- Percentage viability, A549 3-D (A549 3-D; 5 μM): 97.7 ± 0.00%
- Percentage viability, A549 3-D (A549 3-D; 10 μM): 97.8 ± 0.00%
- Percentage viability, A549 3-D (A549 3-D; 100 μM): 94.9 ± 0.02%

From US20130344501A1, “METHODS FOR PRODUCING THREE-DIMENSIONAL PHYSIOLOGICALLY RELEVANT IMMUNE TISSUE SYSTEMS UNDER LOW FLUID SHEAR CONDITIONS” (priority 2010, published 2013)
